{"source": "patent US10603298B2", "about": "“Succinate dehydrogenase inhibitors (SDHi's)” (Medical Research Council, priority 2014, dated 2020)", "key": {"[1]": {"conditions": "administered orally; cited from earlier work"}, "[2]": {"system": "adult primary rat cardiomyocytes", "assay": "ROS production (DHE oxidation) in adult primary cardiomyocytes during in situ IR", "format": "cell-based", "conditions": "40 min ischaemia then reoxygenation, 4 mM in ischaemic buffer", "description": "FIG. 13: Tracking cardiomyocytes ROS levels in primary cardiomyocytes during in situ IR. Primary rat cardiomyocytes were subjected to 40 min ischaemia and reoxygenation with ROS levels tracked throughout the experiment by ratiometric measurement of dihydroethidium (DHE) oxidation. […] Representative traces of each condition are shown. The highlighted window indicates the period of the experiment expanded in detail in FIG. 3.a.\nMale Sprague-Dawley rats (300-370 g) were terminally anaesthetised via IP injections of 200 mg/kg sodium pentobarbitone and 330 U/kg heparin. Hearts were excised and retrograde perfused on a Langendorff-perfusion system with 13 mL/min oxygenated KH buffer at 37° C. Cells were isolated by collagenase digestion using standard methods^41. […]\nCells were imaged within 36 hours of plating. […] Simulated ischaemia was achieved by replacing the buffer with a pre-gassed, hypoxic recording buffer simulating ischaemia (as above but lacking glucose and containing 10 mM sodium lactate, 14.8 mM KCl; pH 6.4) and by covering the heated stage with a transparent, gas-impermeant lid, forming a small chamber into which argon was forced to maintain hypoxia. pO2 was routinely measured as <2.0 mm Hg during simulated ischaemia. […]\nROS production was estimated by oxidation of DHE. […] All measured cell parameters were analysed with Fiji image processing software."}, "[3]": {"assay": "Malonate level in the ischaemic myocardium after i.v. dimethyl malonate (LC-MS)", "parameters": "species or system mouse", "conditions": "intravenous infusion of dimethyl malonate in vivo", "description": "In addition, as shown in FIG. 5a the cell permeability of the compound may be determined by comparing the level of the compound in an untreated cell with that of a treated cell. Typically, the level of the compound may be determined using LC/MS as detailed in the metabolomic analysis in the Examples.\nInfarct size was assessed after 30 min of ischaemia followed by 120 min reperfusion using 2% triphenyltetrazolium chloride staining and is expressed as a percentage of the risk zone^33. […] Control mice were infused with sterile saline. The total volume administered never exceeded 200 μL/mouse.\nEqual amounts wet weight murine tissue were lysed in 250 μL extraction solution (ES; 30% acetonitrile, 50% methanol and 20% water) per 10 mg tissue in Precellysis 24 vials, following the manufacturer's instructions. […] For the LC separation, column A was Sequant Zic-Hilic (150 mm×4.6 mm, internal diameter 3.5 μm) with a guard column (20 mm×2.1 mm 3.5 μm) from HiChrom, Reading, UK. […] Gradient: 0-3 min 80% B, 25 min 20% B, 26 min 80% B, 36 min 80% B. Column B was sequant Zic-pHilic (150 mm×2.1 mm i.d. 3.5 μm) with guard column (20 mm×2.1 mm i.d. […]) from HiChrom, Reading, UK. […] Spectra were analysed using both targeted and untargeted approaches. […] The arrays of spectra were then statistically analysed using the functions explore.data and univariate of the R package mum a^40."}}, "data": [{"smiles": "COC(=O)CC(=O)OC", "note": "[dimethyl malonate]", "values": [{"measurement": "LD50", "setting": "[1]", "result": "approximately 5 gms per kilogram"}, {"measurement": "ROS production / DHE oxidation upon reperfusion", "setting": "[2]", "result": "reduced DHE oxidation upon reperfusion"}, {"measurement": "accumulation of malonate in the ischaemic myocardium", "setting": "[3]", "result": "results in accumulation of malonate"}]}]}
